Test results as given in US20260355165A1, “2,3,4,9-TETRAHYDRO-1H-PYRIDO[3,4-B]INDOLE DERIVATIVES AS ESTROGEN RECEPTOR MODULATORS FOR THE TREATMENT OF CANCER” (Olema Pharmaceuticals, Inc., priority 2022, published 2026).

These compounds were tested against T1, estrogen receptor (Homo sapiens, UniProt P03372) (assay: AP assay (alkaline phosphatase activity in ECC-1 cells), agonist mode (absence of E2) and antagonist mode (presence of 500 pM E2)). Settings: 3 days, AP activity normalized to 500 pM E2 alone, agonist and antagonist mode combined.
T1 construct: endogenous in cells; host or cells: ECC-1 cells
T1 sequence (P03372 1-595): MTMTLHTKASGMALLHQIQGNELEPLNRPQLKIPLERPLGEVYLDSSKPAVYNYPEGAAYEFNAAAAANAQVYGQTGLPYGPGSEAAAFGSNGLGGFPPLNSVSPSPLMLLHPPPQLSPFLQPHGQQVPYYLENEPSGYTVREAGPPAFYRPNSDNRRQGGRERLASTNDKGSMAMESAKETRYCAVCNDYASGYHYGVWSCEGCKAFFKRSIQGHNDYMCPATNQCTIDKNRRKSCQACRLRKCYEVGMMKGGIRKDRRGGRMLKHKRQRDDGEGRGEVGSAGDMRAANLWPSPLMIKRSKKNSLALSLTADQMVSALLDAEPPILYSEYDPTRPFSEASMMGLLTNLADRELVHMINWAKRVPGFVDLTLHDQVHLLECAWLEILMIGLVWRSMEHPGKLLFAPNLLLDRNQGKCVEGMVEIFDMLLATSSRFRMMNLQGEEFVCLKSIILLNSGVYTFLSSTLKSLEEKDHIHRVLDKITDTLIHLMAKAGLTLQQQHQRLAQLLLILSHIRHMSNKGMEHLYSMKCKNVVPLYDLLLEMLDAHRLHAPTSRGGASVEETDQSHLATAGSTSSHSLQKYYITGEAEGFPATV
Assay type: cell-based
Outline: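 ECC-1 cells in hormone-depleted medium treated with compounds for 3 days, without E2 (agonist mode) or with 500 pM E2 (antagonist mode). AP activity read at 405 nm after p-nitrophenyl phosphate substrate, 40 min at 42 °C. Signal normalized to 500 pM E2 alone.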

| SMILES | Activity (estrogen receptor modulation, e.g., agonism and antagonism) |
| --- | --- |
| C[C@@H]1Cc2c([nH]c3ccccc23)[C@@H](c2ccc3oc(C4CN(CCCF)C4)nc3c2)N1CC(C)(C)F [Compound I-82, 5-[(1R,3R)-2-(2-fluoro-2-methyl-propyl)-3-methyl-1,3,4,9-tetrahydropyrido[3,4-b]indol-1-yl]-2-[1-(3-fluoropropyl)azetidin-3-yl]-1,3-benzoxazole] | + (estrogen receptor agonism having (i) at least 80% increase in the E2-normalized signal in the AP assay (agonist mode) and (ii) no more than 80% reduction in the E2-normalized signal in the AP assay (antagonist mode)) |
| CCN1CC(n2cc3cc([C@@H]4c5[nH]c6ccccc6c5C[C@@H](C)N4CC(F)(F)CO)ccc3n2)C1 (racemic) [Compound I-107, 2,2-difluoro-3-[rac-(1R,3R)-1-[2-(1-ethylazetidin-3-yl)indazol-5-yl]-3-methyl-1,3,4,9-tetrahydropyrido[3,4-b]indol-2-yl]propan-1-ol] | + (estrogen receptor agonism having (i) at least 80% increase in the E2-normalized signal in the AP assay (agonist mode) and (ii) no more than 80% reduction in the E2-normalized signal in the AP assay (antagonist mode)) |
| CC1CN(Cc2ccc3c([C@@H]4c5[nH]c6ccccc6c5C[C@@H](C)N4CC(F)F)n[nH]c3c2)C1 [Compound I-37, (1S,3R)-2-(2,2-difluoroethyl)-3-methyl-1-(6-((3-methylazetidin-1-yl)methyl)-1H-indazol-3-yl)-2,3,4,9-tetrahydro-1H-pyrido[3,4-b]indole] | ++ (estrogen receptor antagonism having (i) between 10% and 80% increase in the E2-normalized signal in the AP assay (agonist mode) and (ii) between 10% and 80% reduction in the E2-normalized signal in the AP assay (antagonist mode)) |
| CC1CN(Cc2cc3cc([C@@H]4c5[nH]c6ccccc6c5C[C@@H](C)N4CC(F)(F)CO)ccc3[nH]2)C1 [Compound I-46, 2,2-difluoro-3-[(1R,3R)-3-methyl-1-[2-[(3-methylazetidin-1-yl)methyl]-1H-indol-5-yl]-1,3,4,9-tetrahydropyrido[3,4-b]indol-2-yl]propan-1-ol] | +++ (estrogen receptor antagonism (i) with pIC50 greater than 7.5 and at least a 10% reduction in the E2-normalized signal in the AP assay (antagonist mode); and (ii) no more than 10% increase in E2-normalized signal in the AP assay (agonist mode)) |
| C[C@@H]1Cc2c([nH]c3ccccc23)[C@@H](c2n[nH]c3cc(CN4CC[C@@H](CF)C4)ccc23)N1CC(C)(C)F [Compound I-24, (1S,3R)-2-(2-fluoro-2-methyl-propyl)-1-[6-[[(3R)-3-(fluoromethyl)pyrrolidin-1-yl]methyl]-1H-indazol-3-yl]-3-methyl-1,3,4,9-tetrahydropyrido[3,4-b]indole] | + (estrogen receptor agonism having (i) at least 80% increase in the E2-normalized signal in the AP assay (agonist mode) and (ii) no more than 80% reduction in the E2-normalized signal in the AP assay (antagonist mode)) |
| C[C@@H]1Cc2c([nH]c3ccccc23)[C@@H](c2ccc3nc(CN4CC(CF)C4)cn3c2)N1CC(C)(C)F [Compound I-73, (1R,3R)-1-[2-[[3-(fluoromethyl)azetidin-1-yl]methyl]imidazo[1,2-a]pyridin-6-yl]-2-(2-fluoro-2-methyl-propyl)-3-methyl-1,3,4,9-tetrahydropyrido[3,4-b]indole] | + (estrogen receptor agonism having (i) at least 80% increase in the E2-normalized signal in the AP assay (agonist mode) and (ii) no more than 80% reduction in the E2-normalized signal in the AP assay (antagonist mode)) |
| C[C@@H]1Cc2c([nH]c3ccccc23)[C@@H](c2ccc3[nH]c(CN4CC5(CCC5)C4)cc3c2)N1CC(C)(C)F [Compound I-44, (1R,3R)-1-[2-(2-azaspiro[3.3]heptan-2-ylmethyl)-1H-indol-5-yl]-2-(2-fluoro-2-methyl-propyl)-3-methyl-1,3,4,9-tetrahydropyrido[3,4-b]indole] | ++ (estrogen receptor antagonism having (i) between 10% and 80% increase in the E2-normalized signal in the AP assay (agonist mode) and (ii) between 10% and 80% reduction in the E2-normalized signal in the AP assay (antagonist mode)) |
